In article PMC4965148 (PLoS ONE, 2016):
“And” between values parts separate entries of the source, which are not always exact repeats. Identical values can stand only once. Like-named read-outs stand apart in the source and are kept apart here.

How the values were obtained:
[1] = parameters: method as in PMID 21337354; details: rodents; cited from earlier work
[2] = target: T1, HEK293/rat α7 nAChR cells (Rattus norvegicus, UniProt Q05941); assay: Whole cell voltage clamp electrophysiology; format: cell-based; details: n = 6
T1 construct: expressed in transfected cells
Procedure: Whole-cell voltage clamp studies were conducted on HEK293/rat α7 or HEK293/human α7 nAChR cells. […] Atropine (1 μM) was included in the bathing solution. […] Cells were voltage clamped at a holding potential of -90 mV. Using the Dynaflow microfluidic perfusion system (Cellectricon; flow 26 μl/min) responses to a 300 ms application of ACh or α7 nAChR agonists were measured. Currents were filtered at 2 kHz and sampled at 10 kHz using an EPC-9 amplifier and HEKA Pulse/Patchmaster software. […] The peak current amplitude and net charge crossing the membrane (i.e. the area under the current response curve) induced by agonist application were measured using Clampfit (pClamp Suite) and normalized to the maximal response induced by ACh (3 mM ACh for peak current amplitude and 300 μM ACh for net charge).

HEK293/Human α7 nAChR = HEK293/Human α7 nAChR (Homo sapiens, UniProt P36544); assay: Ca2+ flux (FLIPR) agonist assay; format: cell-based
Procedure: Functional activity was examined using Ca^2+-sensitive, dye-based, microfluorometric assays read on the FLIPR Tetra plate reader platform (Molecular Devices, CA, USA). Cells were plated in 384-well black, clear-bottomed Greiner poly-D-lysine coated plates at a density of ~25 K cells/well and incubated at 29°C for 48 h. Prior to assay, media contents were removed and cells incubated in assay buffer containing 5μM final Fluo-4 dye for 90 min. […] Test compounds were solubilized in DMSO and serially diluted in NUNC 384-well plates prior to addition of assay buffer (5.3 mM KCl + 140 mM NaCl + 20 mM Hepes + 25 mM CaCl2 + 1 mM MgCl2 + 10 μM atropine final concentration). Compounds diluted in assay buffer were added to the assay plate by the FLIPR and read for approximately 2 min. […] Offline transformation of concentration response data was done using a 4 parameter logistic fit using a Bristol-Myers Squibb proprietary informatics software suite.

HEK293/Human 5-HT3A = target: T2, HEK293/Human 5-HT3A (Homo sapiens, UniProt P46098); assay: Ca2+ flux (FLIPR) 5-HT3A antagonist assay; format: cell-based
T2 construct: expressed in transfected cells; host or cells: HEK293 (made by Bristol-Myers Squibb)
T2 sequence (P46098 24-478): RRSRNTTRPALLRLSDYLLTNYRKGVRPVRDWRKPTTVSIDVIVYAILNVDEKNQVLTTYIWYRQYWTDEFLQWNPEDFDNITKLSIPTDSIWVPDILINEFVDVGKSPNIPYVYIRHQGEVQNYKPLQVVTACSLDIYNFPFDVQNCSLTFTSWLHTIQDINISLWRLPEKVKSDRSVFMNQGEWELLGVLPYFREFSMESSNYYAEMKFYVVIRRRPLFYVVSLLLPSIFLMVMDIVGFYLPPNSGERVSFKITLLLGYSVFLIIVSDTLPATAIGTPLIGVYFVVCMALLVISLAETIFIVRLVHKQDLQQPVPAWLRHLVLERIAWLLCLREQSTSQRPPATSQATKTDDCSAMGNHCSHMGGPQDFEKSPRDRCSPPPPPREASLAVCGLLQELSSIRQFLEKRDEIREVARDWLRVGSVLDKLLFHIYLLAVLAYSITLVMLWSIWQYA
Procedure: Functional activity was examined using Ca^2+-sensitive, dye-based, microfluorometric assays read on the FLIPR Tetra plate reader platform (Molecular Devices, CA, USA). Cells were plated in 384-well black, clear-bottomed Greiner poly-D-lysine coated plates at a density of ~25 K cells/well and incubated at 29°C for 48 h. Prior to assay, media contents were removed and cells incubated in assay buffer containing 5μM final Fluo-4 dye for 90 min. For nAChR assays, the dye-loading buffer was HBSS (#14175 Life Technologies) supplemented with 20 mM HEPES, 0.5 mM CaCl2, 1 mM MgCl2 and 10 μM atropine (final concentration). Test compounds were solubilized in DMSO and serially diluted in NUNC 384-well plates prior to addition of assay buffer (5.3 mM KCl + 140 mM NaCl + 20 mM Hepes + 25 mM CaCl2 + 1 mM MgCl2 + 10 μM atropine final concentration). Compounds diluted in assay buffer were added to the assay plate by the FLIPR and read for approximately 2 min. […] For 5-HT3A antagonist studies, the dye loading and compound diluent buffer was HBSS (#14025 Life Technologies) supplemented with 20 mM HEPES (final concentration) and the concentration of 5-HT used in the assay was 2 μM. Offline transformation of concentration response data was done using a 4 parameter logistic fit using a Bristol-Myers Squibb proprietary informatics software suite.

C57Bl/6 mice = assay: Mouse 24 h novel object recognition; format: in vivo
Procedure: The procedure followed a 3 day protocol. On day 1 (habituation) individual mice were habituated to the testing chamber (a white PVC box 48 cm long x 38 cm wide x 20 cm high with brown linoleum flooring) for 15 min then returned to their home cage. On day 2 (training) individual mice were returned to the testing chamber containing 2 identical objects and allowed to explore. The training session lasted for up to 15 min or until the mouse explored the objects for a total of 60 s. A maximal trial duration of 15 min was used to accommodate mice that are slower to initiate exploration. On day 3 (testing) individual mice were returned to the testing chamber 24 h later containing 1 familiar object encountered in the previous training session and one novel object. The testing session lasted up to 10 min or until the mouse explored the objects for a total of 60 s. The objects used for these studies were made of duplex legos approximately 3 inches high x 1 inch wide; one object was a multicolored rectangle and the second object was a solid color rectangle with a short arm attached. The location of the objects was counterbalanced between animals but was consistent within animals so that only the object itself was novel on the test session. The familiar object used during the test session was the same object used during training and all objects were thoroughly cleaned between sessions and between subjects. Animal behavior was video recorded during both training and testing and the amount of time spent exploring the objects determined using Cleversys software. Object exploration was only scored when the animal’s nose was within 1 cm of the object. […] The vehicle was chosen for sc dosing to ensure that BMS-933043 was dosed as a solution and not a suspension. […] For each subject the % discrimination index (DI) was calculated for both the training and test session as follows: %DI training = (time exploring object 1—time exploring object 2)/(total time exploring object 1 + object 2) X 100; %DI testing = (time exploring novel object—time exploring familiar object)/(total time exploring novel + familiar object) X 100.

[3] = Plasma and brain concentrations after dosing; format: in vivo, mouse; details: for Kp: mouse, brain/plasma
Procedure: Occupancy determinations were made either on completion of behavioral testing or in satellite groups of animals dosed in parallel with behavioral testing. At specified time points after dosing, the forebrain (for occupancy), the remaining hindbrain (for brain drug exposure) and plasma were collected, frozen in chilled isopentane and stored at -80°C until assayed. […] Homogenized tissue aliquots were frozen immediately and stored at -80°C. […] Non-specific binding was defined by adding 25 μM MLA to wells containing tissues from vehicle-treated animals. […] The filters were washed with ice-cold assay buffer, punched into a clear plate and 200 μl scintillation fluid added per well. Bound radioactivity was measured using a Wallac Microbeta liquid scintillation counter. Specific binding was calculated by subtracting the value of the non-specific binding from that of the total binding in each sample. The percent occupancy was calculated as [1 –(specific binding in drug treated mice/specific binding in vehicle treated mice)] x 100.
In brief, 50 μL of the plasma sample was extracted by protein precipitation with 150 μL acetonitrile containing an internal standard and 5 μL of supernatant injected into the LC-MS/MS system. Analytes were separated by reversed phase chromatography and detection of each analyte was achieved through selected reaction monitoring mode of mass spectrometry.

Rat Brain α7 nAChR = Rat Brain α7 nAChR (Rattus norvegicus, UniProt Q05941); assay: [3H]-A-585539 filtration binding
α7 nAChR = target: T3, α7 nAChR (Mus musculus, UniProt P49582); assay: Ex vivo α7 nAChR occupancy ([3H]-A-585539); format: in vivo; details: mouse, sc, mice
T3 construct: One forebrain hemisphere from each animal was thawed and homogenized in assay buffer; from tissue; host or cells: forebrain homogenate of dosed male C57Bl/6 mice
Procedure: Occupancy determinations were made either on completion of behavioral testing or in satellite groups of animals dosed in parallel with behavioral testing. At specified time points after dosing, the forebrain (for occupancy), the remaining hindbrain (for brain drug exposure) and plasma were collected, frozen in chilled isopentane and stored at -80°C until assayed. […] Homogenized tissue aliquots were frozen immediately and stored at -80°C. […] The filters were washed with ice-cold assay buffer, punched into a clear plate and 200 μl scintillation fluid added per well. Bound radioactivity was measured using a Wallac Microbeta liquid scintillation counter. Specific binding was calculated by subtracting the value of the non-specific binding from that of the total binding in each sample. The percent occupancy was calculated as [1 –(specific binding in drug treated mice/specific binding in vehicle treated mice)] x 100.

[4] = NS-6740 (10 mg/kg sc) 10 min prior to BMS-933043 (0.3 mg/kg sc)

Chain of Rat Brain α7 nAChR (Q05941 23-502): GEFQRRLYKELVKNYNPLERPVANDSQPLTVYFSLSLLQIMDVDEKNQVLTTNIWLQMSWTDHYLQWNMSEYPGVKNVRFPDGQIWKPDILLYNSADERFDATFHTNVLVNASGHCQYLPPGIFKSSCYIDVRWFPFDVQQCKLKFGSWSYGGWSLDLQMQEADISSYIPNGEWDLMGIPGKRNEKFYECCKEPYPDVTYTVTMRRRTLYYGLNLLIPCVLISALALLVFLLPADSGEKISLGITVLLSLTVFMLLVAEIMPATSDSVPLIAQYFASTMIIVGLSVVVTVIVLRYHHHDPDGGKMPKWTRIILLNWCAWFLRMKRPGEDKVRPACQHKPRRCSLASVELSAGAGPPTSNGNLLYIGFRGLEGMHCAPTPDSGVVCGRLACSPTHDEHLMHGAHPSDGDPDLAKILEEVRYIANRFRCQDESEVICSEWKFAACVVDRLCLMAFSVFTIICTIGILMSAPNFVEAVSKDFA
T1 sequence (Q05941 23-502): as above
T3 sequence (P49582 23-502): as the sequence (Q05941 23-502) above, with A402T counted along it
Chain of HEK293/Human α7 nAChR (P36544 23-502): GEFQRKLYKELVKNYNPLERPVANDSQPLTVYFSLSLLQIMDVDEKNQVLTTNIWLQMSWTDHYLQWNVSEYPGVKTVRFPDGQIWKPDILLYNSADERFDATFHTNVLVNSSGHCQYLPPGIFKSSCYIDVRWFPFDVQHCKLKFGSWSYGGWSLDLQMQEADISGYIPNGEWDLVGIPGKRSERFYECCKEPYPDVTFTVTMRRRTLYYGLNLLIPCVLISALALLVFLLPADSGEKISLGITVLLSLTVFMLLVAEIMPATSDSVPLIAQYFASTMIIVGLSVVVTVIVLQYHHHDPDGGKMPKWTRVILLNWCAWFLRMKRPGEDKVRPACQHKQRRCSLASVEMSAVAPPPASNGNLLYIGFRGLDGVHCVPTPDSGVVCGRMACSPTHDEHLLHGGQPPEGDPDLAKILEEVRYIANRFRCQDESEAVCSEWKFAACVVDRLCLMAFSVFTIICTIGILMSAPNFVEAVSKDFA
Chain of HEK293/Human α7 nAChR (Q7Z5B4 29-369 partner): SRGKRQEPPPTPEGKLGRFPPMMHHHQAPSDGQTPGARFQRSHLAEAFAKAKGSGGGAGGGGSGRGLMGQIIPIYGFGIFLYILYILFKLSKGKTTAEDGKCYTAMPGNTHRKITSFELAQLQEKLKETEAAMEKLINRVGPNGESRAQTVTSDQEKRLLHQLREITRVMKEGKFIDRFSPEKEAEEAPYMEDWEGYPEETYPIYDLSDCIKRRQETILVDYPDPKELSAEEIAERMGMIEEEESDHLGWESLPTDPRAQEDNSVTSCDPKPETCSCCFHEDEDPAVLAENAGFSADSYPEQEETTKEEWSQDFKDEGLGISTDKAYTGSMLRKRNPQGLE

## CCN1C[C@]2(COC(=O)c3ccccc3N3C(=O)C[C@H](C)C3=O)CC[C@H](OC)[C@@]34[C@@H]5C[C@H]6[C@H](OC)[C@@H]5[C@](O)(C[C@@H]6OC)[C@@](O)([C@@H](OC)[C@H]23)[C@@H]14 [MLA, methyllycaconitine]
[1]
  brain/plasma: 0.06–0.09

## O=C(c1ccc(-c2cccc(C(F)(F)F)c2)o1)N1CCN2CCC1CC2 [NS-6740, 4-[[5-[3-(trifluoromethyl)phenyl]-2-furanyl]carbonyl]-1,4-diazabicyclo[3.2.2]nonane]
[2]; IC50 for inhibition of BMS-933043 (10 μM) net charge crossing the membrane
  IC50: 0.255 µM
[2]; IC50 for inhibition of BMS-933043 (10 μM) peak current response
  IC50: 0.283 ± 0.033 µM
HEK293/Human α7 nAChR
  α7 nAChR agonist activity: no α7 nAChR agonist activity
HEK293/Human 5-HT3A; FLIPR, individual determinations, read-out: Human 5-HT3A IC50 values (individual)
  IC50: 6.21 µM and 5.69 µM and 5.32 µM and 5.91 µM and 2.39 µM and 3.11 µM and 4.7 µM and 5.68 µM and 4.43 µM
HEK293/Human 5-HT3A; HEK293/Human 5-HT3A Mean ± SD IC50, Ca2+ flux (FLIPR), antagonism of 2 μM 5-HT
  IC50: 4.83 µM
C57Bl/6 mice; 3 or 10 mg/kg sc
  24 h recognition memory after NS-6740 alone: did not show improved 24 h recognition memory
C57Bl/6 mice; NS-6740 10 mg/kg sc
  effect of pretreatment on BMS-933043 (0.3 mg/kg, sc) improved discrimination index: abolished the improved discrimination index
C57Bl/6 mice; [4]
  % Discrimination Index (DI) Testing (day 3) Mean ± SEM: 3.83 ± 4.25%
  % Discrimination Index (DI) Training (day 2) Mean ± SEM: -4.82 ± 7.09%
C57Bl/6 mice; NS-6740 (10 mg/kg sc)/Vehicle
  % Discrimination Index (DI) Testing (day 3) Mean ± SEM: -1.02 ± 4.40%
  % Discrimination Index (DI) Training (day 2) Mean ± SEM: 6.43 ± 5.54%
[3]; NS-6740 0.3 mg/kg sc, mice
  Brain Mean ± SD: 316 ± 43 nM
  Plasma Mean ± SD: 37 ± 2 nM
[3]; NS-6740 1 mg/kg sc, mice
  Brain Mean ± SD: 1,125 ± 66 nM
  Plasma Mean ± SD: 130 ± 7 nM
[3]; NS-6740 3 mg/kg sc, mice
  Brain Mean ± SD: 3,998 ± 273 nM
  Plasma Mean ± SD: 544 ± 214 nM
[3]; NS-6740 10 mg/kg sc, mice
  Brain Mean ± SD: 17,725 ± 1,928 nM
  Plasma Mean ± SD: 2,083 ± 426 nM
[3]; NS-6740 0.3 mg/kg sc, mice, read-out: Brain/Plasma Ratio
  Kp: 8.54
[3]; NS-6740 1 mg/kg sc, mice, read-out: Brain/Plasma Ratio
  Kp: 8.65
[3]; NS-6740 3 mg/kg sc, mice, read-out: Brain/Plasma Ratio
  Kp: 7.35
[3]; NS-6740 10 mg/kg sc, mice, read-out: Brain/Plasma Ratio
  Kp: 8.51
[3]; NS-6740, mice sc, read-out: average brain/plasma ratio
  Kp: > 8
Rat Brain α7 nAChR; displacement of [3H]-A-585539, read-out: Rat Brain α7 nAChR Mean ± SD Ki
  Ki: 0.00285 ± 0.00044 µM
Rat Brain α7 nAChR; individual determinations, read-out: Rat Brain α7 nAChR Ki (individual)
  Ki: 0.00245 µM and 0.00278 µM and 0.00333 µM
α7 nAChR; read-out: ex vivo α7 nAChR occupancy, NS-6740 3 mg/kg sc
  receptor occupancy at 3 mg/kg: 89%
α7 nAChR; read-out: ex vivo α7 nAChR occupancy, NS-6740 10 mg/kg sc
  receptor occupancy at 10 mg/kg: 98%
